Reference: BindingDB's records for doi:10.1016/j.ejmech.2016.02.023 (Rhône-Poulenc Rorer, 2016)

Test: Antagonist activity at CRTH2 receptor in human eosinophils by ESC assay

SMILES | IC50
Cc1c(CC(=O)O)c2ccncn2c1Cc1ccccc1S(=O)(=O)c1ccccc1 | 12 nM
COc1ccc(S(=O)(=O)c2ccc(F)cc2)c(Cc2c(C)c(CC(=O)O)c3ccncn23)c1 | 6 nM
